# Reference: US20240343762A1, “USE OF PROTON PUMP MODULATOR IN PREPARING REAGENT” (SHANGHAI QUIETD BIOTECHNOLOGY CO. LTD., priority 2021, published 2024)
# Assays:
# [1] = molecular target: T1, murine ATP6V1B2 full-length protein (Mus musculus, UniProt P62814); assay: Co-immunoprecipitation of EGFP-tagged QD202 with Myc-tagged ATP6V1B2 full-length protein in 293 cells; type: binding
# T1 construct: expressed in transfected cells; host or cells: 293 cells
# Excerpt: Expression plasmids including murine ATP6V1B2 full-length sequence, 1-286aa truncated sequence or 1-172aa truncated sequence with a Myc tag are respectively constructed; the amino acid sequence of the murine ATP6V1B2 full-length sequence was as set forth in SEQ ID NO. 8, the amino acid sequence of the murine ATP6V1B21-286aa was as set forth in SEQ ID NO. 10; the amino acid sequence of the murine ATP6V1B21-172aa as set forth in as SEQ ID NO. 11; and these plasmids were respectively called as an ATP6V1B2 full-length expression plasmid, an ATP6V1B21-286aa expression plasmid and an ATP6V1B21-172aa expression plasmid. Meanwhile, a QD202 expression plasmid with an EGFP tag was constructed. […]
# Then a Protein G agarose bead was added to be bound to the Myc antibody, so as to precipitate the ATP6V1B2 full-length protein, the 1-286aa truncated sequence or the 1-172aa truncated sequence, and proteins which were bound to one another, and finally the proteins subjected to co-immunoprecipitation was detected by virtue of an immunoblotting method.
# [2] = tested on: APP/PS1 transgenic AD mice; assay: New object recognition test in APP/PS1 transgenic AD mice; type: in vivo, mouse; settings: continuously for 1 week, mice of 10 months old
# Protocol: A new object recognition test was carried out by an open field box (40×40×35 cm, made of blue opaque plastic) with reference to a behavior test scheme recorded by Leger, M., et al. Object recognition test in mice. Nat Protoc. 8, 2531-2537 (2013). On the first day, mice were put into the open field box to adapt for 10 min. On the second day, each mouse was lightly put in the center of the box, two similar objects (a battery I) were put in the central area and freely explore for 10 min, and then the mice were sent back to feeding cages. After 3 h, the mice were put back to the box again (one battery was replaced with a doll toy which was 10 cm high) for 10 min to carry out a memory retention test. A video was analyzed by Etho Vision XT 14 software, and the time for exploring new/old objects by the mice was recorded. The discrimination index was computed as (Tnovel−Tfamliar)/(Tnovel+Tfamiliar).
# APP/PS1 transgenic mice of 10 months old (purchased from MODEL ORGANISMS) were selected, and equally divided into three groups; the mice were administrated with a PBS buffer solution (group 2), […]
# [3] = tested on: APP/PS1 transgenic AD mice; assay: Morris water maze test in APP/PS1 transgenic AD mice; type: in vivo, mouse; settings: continuously for 1 week, mice of 10 months old
# Protocol: Morris water maze referred to the test solutions recorded in Qing-Feng Wu et al., Fibroblast growth factor 13 is a microtubule-stabilizing protein modulating neuronal polarization and migration. Cell. 149, 1549-1564 (2012). The test was carried out in a circular pool filled with water (120 cm in diameter, 30 cm in depth, titanium dioxide was added to make opaque, kept temperature at 21±1° C.) in a room with a fixed environment. The test was divided into an adaptation period (1 day), a training period (5-6 days) and a testing period (1 day). Adaptation period: the platform was placed 0.5 cm above the water surface, and the mice were guided to the platform. Training day: the platform was placed 0.5 cm underwater, and the mice were trained to find the platform. […] Training were performed 4 times a day, 4 times a day (between 8:00 a.m. to 4:00 p.m.), the mice were dropped from different water points each time, each training was performed at interval of at least 30 min, a total of 6 days, and the order of water points was different every day. Test Day: test was performed 24 h after the end of the training day. […] The footage was analyzed with Etho Vision XT 14 software, recording parameters including the escape latency of entering the target quadrant, the number of platform crossings, and the dwell time in the target quadrant. […]
# T1 sequence (P62814 whole entry): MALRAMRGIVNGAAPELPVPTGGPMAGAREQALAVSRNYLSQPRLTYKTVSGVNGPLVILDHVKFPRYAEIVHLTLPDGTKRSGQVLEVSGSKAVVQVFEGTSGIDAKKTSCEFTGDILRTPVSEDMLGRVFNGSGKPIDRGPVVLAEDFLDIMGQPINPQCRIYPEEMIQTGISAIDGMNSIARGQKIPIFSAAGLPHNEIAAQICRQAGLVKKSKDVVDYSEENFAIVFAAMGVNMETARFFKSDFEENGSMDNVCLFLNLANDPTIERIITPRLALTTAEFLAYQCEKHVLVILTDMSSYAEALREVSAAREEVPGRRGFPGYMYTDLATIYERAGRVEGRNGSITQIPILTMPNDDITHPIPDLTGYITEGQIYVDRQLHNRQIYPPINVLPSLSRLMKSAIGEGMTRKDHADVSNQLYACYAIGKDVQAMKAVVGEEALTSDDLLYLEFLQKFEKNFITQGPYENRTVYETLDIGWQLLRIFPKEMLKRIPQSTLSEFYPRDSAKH
substance,measurement,setting,value
QD202: polypeptide synthesized according to the amino acid sequence as set forth in SEQ ID NO. 1 (YGRKKRRQRRRSPVDVVCS; QD202),binding to ATP6V1B2 full-length protein by co-immunoprecipitation,"[1]; 293 cells, Myc antibody, immunoblotting",only the full-length ATP6V1B2 protein can be combined
same,binding site of ATP6V1B2 and QD202,[1]; concluded from full-length versus truncated sequences,288th amino acid to 512th amino acid
same,learning and cognitive functions in new object recognition,"[2]; intragastric, 6.25 mg/kg",obvious improvement of learning and cognitive functions
same,learning and cognitive functions in new object recognition,"[2]; intravenous, 1.25 mg/kg",obvious improvement on learning and cognitive functions
same,learning and cognitive functions in water maze behavior,"[3]; intragastric, 6.25 mg/kg",obvious improvement of learning and cognitive functions
same,learning and cognitive functions in water maze behavior,"[3]; intravenous, 1.25 mg/kg",obvious improvement on learning and cognitive functions
